Source: US9155695B2, “Injectable ropinirole compositions and methods for making and using same” (Medtronic, Inc., priority 2013, dated 2015)
Where a name gives a salt, the structure may show the parent alone.

Columns and labels:
site of infusion [1] = test: Histopathology score of site reactions in the subcutis at the cannula tip; conditions: apomorphine, microscopic
site of infusion [2] = test: Toxicology, subcutaneous infusion site reaction; type: in vivo, rabbits and minipigs
Method: Toxicology was tested on rats, rabbits and minipigs. A sterilized injectable ropinirole composition at 15 mg/mL/day was administered to the rabbits and minipigs. Injection sites were administered 1 mL of infusate per day for 3 days and tissues collected immediately after cessation of delivery. […] A slight trend towards larger reactions with higher concentrations/doses of ropinirole relative to vehicle-treated sites was found but was concluded to be much less severe than apomorphine-induced inflammation at clinically relevant doses (FIGS. 12 and 13).

[3] = Pharmacokinetics of injectable ropinirole administered subcutaneously, steady state plasma levels; type: in vivo; conditions: minipigs, subcutaneous, ropinirole 15 mg/ml terminally sterilized (Table A)
site of infusion [4] = conditions: in vivo
[5] = Pharmacokinetics of injectable ropinirole administered subcutaneously, steady state plasma levels; type: in vivo; conditions: rats, subcutaneous, sterilized ropinirole HCl in sterile water for injection, no excipients
Source text: The rats were given sterilized ropinirole HCl in sterile water for injection, no excipients.

CN1CCc2cccc3c2[C@H]1Cc1ccc(O)c(O)c1-3 [apomorphine]
inflammation score (site of infusion [1]): severe | necrosis score (site of infusion [1]): moderate | size of site reaction relative to 15 mg/mL/day ropinirole (site of infusion [2]; minipig, 10 mg/3 mL/day, 3 days infusion): approximately twice as large

CCCN(CCC)CCc1cccc2c1CC(=O)N2 [ropinirole, 4-[2-(dipropylamino)ethyl]-1,3-dihydro-2H-indol2-one monohydrochloride]
steady state plasma levels versus dose [3]: approximate linear relationship to the dose administered | two and three repeat administrations to the same site versus single 3-day administration (site of infusion [4]): did not differ significantly | steady state plasma levels versus dose [5]: approximate linear relationship to the dose administered | inflammation/necrosis at the site of infusion (site of infusion [2]; 15 mg/mL/day, 1 mL per day for 3 days): mild inflammation/necrosis | gross detectability of reactions at the local sites of infusion (site of infusion [2]; seen only at cannula tip in the subcutis upon microscopic evaluation): not detectable grossly at the surface of the skin
